{"source": "patent US20230102836A1", "about": "“Amoebicidal Compositions for Contact Lens Solutions” (University of the West of Scotland, priority 2019, published 2023)", "key": {"[1]": {"tested_on": "A. castellanii cysts", "test": "Cytotoxicity assay on cysts (trypan blue)", "assay_type": "cell-based, Acanthamoeba castellanii ATCC 50370", "settings": "Acanthamoeba castellanii", "procedure": "Acanthamoeba castellanii ATCC 50370 trophozoites and cysts were cultured in Peptone Glucose (PG) medium and encystment medium (Chagla A H, Griffiths A J (1974) Microbiology: 85(1): 139-145) respectively at 25° C. Cysts were prepared by incubating trophozoites for 8 days in encystment medium and integrity validated with calcofluor (0.25 μg/ml) assay (Gatti S et al (2010) J. Med. Microbiol.; 59: 1324-1330) or sodium dodecyl sulfate (SDS, 0.5% w/v) disintegration assay (Dudley R et al (2005) Acta Trop.; 9: 100-8) and microscopic observation.\nThe compounds used in this study all contained alkyl-carbon chains: three APCs [dodecyl-PC (APC12), tetradecyl-PC. (APC14) and hexadecyl-PC (APC16)] (Anatrace) and four QACs [docdecyl-TMAB (QAC12), tetradecyl-TMAB (QAC14), hexadecyl-TMAB (QAC16) and octadecyl-TMAB (QAC18)](Sigma). All were prepared to a stock concentration of 1 mg/ml and diluted as required by the experimental protocol in the cytotoxicity assays. A. castellanii trophozoites and cysts (at 10^5 cells/ml) with or without APCs or QACs (concentrations ranging from […] doubly diluted to 0.04 μg/ml to a final volume of 100 μl) in a 96-well plate were incubated at 25° C. for a duration determined by the experimental protocol.\n(§1) For the combined assay, similar concentrations of QAC18 and APC16 were prepared and 18.75 μg/ml and 37.5 μg/ml of QAC12 added (to a final volume of 100 μl) were added to 10^5 cells/mi in a 96-well plate and later incubated at 25° C. for a duration determined by the experimental protocol. Resazurin (7-Hydroxy-31-phenoxazin-3-one 10-oxide; 5 mg/ml; McBride J et al (2005) J. Clin. Microbiol.; 43: 629-634) and trypan blue (0.4 μg/ml; Mafra C S P et al (2013) Investig. Ophthalmol. Vis. Si.; 54: 6363-6372) were then added to trophozoites and cysts respectively after being exposed to the compounds and the cell viability estimated microscopically and from changes in absorbance (at 595 nm and 570 nm) respectively.\nEfficacy was expressed as a percentage of untreated controls for each drug concentration used and the data used to calculate the IC50. Cell density was estimated using the modified Neubaur hemocytometer and expressed as cells/ml."}, "[2]": {"tested_on": "A. castellanii trophozoites", "test": "Combined assay with fixed QAC12 (alamarBlue)", "assay_type": "cell-based, Acanthamoeba castellanii ATCC 50370", "settings": "Acanthamoeba castellanii, 96 h, 96 h at 25° C.", "procedure": "Acanthamoeba trophozoites (10^5 cells/ml. n=5/treatment) treated with 100 μg/ml doubly diluted to 0.06 μg/ml of QAC18 (a,b) or APC16 (c,d) for 96 h at 25° C. […] Similarly. APC16 alone at the same concentration (closed circle, FIG. 6C, FIG. 6D) in combination with QAC12 at 18.75 μg/ml (open squares, d) QAC12 at […] (open squares, FIG. 6C). Data are mean absorbance at 595 nm t SD; n=4 independent experiments performed in triplicates. IC50s were not statistically significant between QAC12 at both concentrations and QAC16 (p>0.05, FIG. 6A, FIG. 6B) but significant with APC16 (p<0.05, FIG. 6C, FIG. 6D).\nas §1"}, "[3]": {"tested_on": "gDNA from A. castellanii", "test": "QAC-DNA interaction assay", "assay_type": "binding, Acanthamoeba castellanii", "settings": "DNA:QAC ratios 1:0, 1:1, 1:10, 1:20; 15 min", "procedure": "FIGS. 3A and 3B show the QAC-DNA interaction. The absorbance of genomic DNA (0.6 ng/ml) extracted from A. castellani trophozoites measured at 260 nm with the Nanodrop after incubating for 15 minutes with 0 ng/ml, 0.6 ng/ml, 6 ng/ml or 12 ng/ml of QAC12 (FIG. 3A) or QAC16 (FIG. 3B) to give ratios of 1:0, 1:1, 1:10 and 1:20. DNA absorbance increased and decreased with increased […] and [QAC12] respectively. Data is mean absorbance at 260 nm±SD; n=4 independent experiments performed in triplicates.\nGenomic deoxynucleic acids (gDNA) from 10^8 A. castellanii trophozoites (treated with and without QAC) were extracted from cells harvested by centrifugation (850×g, 10 min), lysed with UNSET buffer (8M urea, […] NaCl, 2% SDS, […] ethylenediaminetetraacetic acid (EDTA), […] Tris-HCl, pH 7.5) and the DNA extracted with phenol-chloroform (1:1 v/v). The biphasic suspension with DNA enriched on the […] was centrifuged (12,000×g for 15 min, 4° C.) for clear separation and transferred to a new microcentrifuge tube. The DNA was precipitated with cold ethanol (100%, v/v) and 0.3M sodium acetate, washed twice with 70% (v/v) ethanol (12,000×g for 10 min, 4° C.), air dried and resuspended in distilled water. […]"}, "[4]": {"tested_on": "A. castellanii trophozoites", "test": "DNA-agarose gel electrophoresis of gDNA of treated trophozoites", "assay_type": "cell-based, Acanthamoeba castellanii", "settings": "18.75 μg/ml after 96 h", "procedure": "Genomic deoxynucleic acids (gDNA) from 10^8 A. castellanii trophozoites (treated with and without QAC) were extracted from cells harvested by centrifugation (850×g, 10 min), lysed with UNSET buffer (8M urea, 150 μM NaCl, 2% SDS, […] ethylenediaminetetraacetic acid (EDTA), […] Tris-HCl, pH 7.5) and the DNA extracted with phenol-chloroform (1:1 v/v). The biphasic suspension with DNA enriched on the […] was centrifuged (12,000×g for 15 min, 4° C.) for clear separation and transferred to a new microcentrifuge tube. The DNA was precipitated with cold ethanol (100%, v/v) and 0.3M sodium acetate, washed twice with 70% (v/v) ethanol (12,000×g for 10 min, 4° C.), air dried and resuspended in distilled water."}, "[5]": {"tested_on": "A. castellanii trophozoites", "test": "Drug wash-out / alamarBlue-reversion assay, trophozoites", "assay_type": "cell-based, Acanthamoeba castellanii ATCC 50370"}}, "note": "Values joined by “and” are separate entries in the source; they are usually repeats but may differ in a detail not shown here. Equal values may be shown once. Read-outs that look alike come from different tables or passages of the source.", "data": [{"smiles": "CCCCCCCCCCCCCCCCCC[N+](C)(C)C.[Br-]", "note": "[QAC18, octadecyltrimethyl ammonium bromide]", "values": [{"measurement": "IC50", "setting": "[1]; Table 2, read-out: IC50 A. castellanii cysts", "value": "15 µg/mL and 38 µM"}, {"measurement": "IC50", "setting": "[1]; after 96 h, trypan blue viability assay, read-out: Estimated IC50 against matured cysts", "value": "22 ± 0.04", "unit": "µg/mL"}, {"measurement": "IC50", "setting": "[2]; QAC12 fixed at 18.75 μg/ml, read-out: Estimated IC50 of QAC18 in combination with QAC12", "value": 6.7, "unit": "µg/mL"}, {"measurement": "IC50", "setting": "[2]; QAC12 fixed at 37.5 μg/ml, read-out: Estimated IC50 of QAC18 in combination with QAC12", "value": 6.9, "unit": "µg/mL"}, {"measurement": "IC50", "setting": "[2]; without QAC12, read-out: Estimated IC50 of QAC18 alone", "value": 6.1, "unit": "µg/mL"}, {"measurement": "Change of gDNA absorbance at 260 nm with increasing QAC", "setting": "[3]", "value": "progressively increased absorbance"}, {"measurement": "Fragmented DNA profile that depicts death via apoptosis", "setting": "[4]", "value": "not observed"}, {"measurement": "Back transformation to trophozoites after drug wash-out", "setting": "[5]; 9.375 μg/ml, 1 h", "value": "+"}, {"measurement": "Back transformation to trophozoites after drug wash-out", "setting": "[5]; 9.375 μg/ml, 24 h", "value": "−"}, {"measurement": "Back transformation to trophozoites after drug wash-out", "setting": "[5]; 9.375 μg/ml, 48 h", "value": "−"}, {"measurement": "Back transformation to trophozoites after drug wash-out", "setting": "[5]; 9.375 μg/ml, 72 h", "value": "−"}, {"measurement": "Back transformation to trophozoites after drug wash-out", "setting": "[5]; 9.375 μg/ml, 96 h", "value": "−"}, {"measurement": "Back transformation to trophozoites after drug wash-out", "setting": "[5]; 18.75 μg/ml, 1 h", "value": "+"}, {"measurement": "Back transformation to trophozoites after drug wash-out", "setting": "[5]; 18.75 μg/ml, 24 h", "value": "−"}, {"measurement": "Back transformation to trophozoites after drug wash-out", "setting": "[5]; 18.75 μg/ml, 48 h", "value": "−"}, {"measurement": "Back transformation to trophozoites after drug wash-out", "setting": "[5]; 18.75 μg/ml, 72 h", "value": "−"}, {"measurement": "Back transformation to trophozoites after drug wash-out", "setting": "[5]; 18.75 μg/ml, 96 h", "value": "−"}, {"measurement": "Back transformation to trophozoites after drug wash-out", "setting": "[5]; 37.50 μg/ml, 1 h", "value": "−"}, {"measurement": "Back transformation to trophozoites after drug wash-out", "setting": "[5]; 37.50 μg/ml, 24 h", "value": "−"}, {"measurement": "Back transformation to trophozoites after drug wash-out", "setting": "[5]; 37.50 μg/ml, 48 h", "value": "−"}, {"measurement": "Back transformation to trophozoites after drug wash-out", "setting": "[5]; 37.50 μg/ml, 72 h", "value": "−"}, {"measurement": "Back transformation to trophozoites after drug wash-out", "setting": "[5]; 37.50 μg/ml, 96 h", "value": "−"}, {"measurement": "Amoebotoxicity after wash-out and replacement with PG medium", "setting": "[5]; after 24 h at 9.375 μg/ml", "value": "amoebotoxic"}, {"measurement": "Amoebotoxicity after wash-out and replacement with PG medium", "setting": "[5]; from 1 h onwards at 37.5 μg/ml", "value": "amoebotoxic"}]}]}
